Reference: patent US20220281930A1, “COMPOSITIONS AND METHODS FOR THE TREATMENT OF PATHOLOGICAL PAIN AND ITCH” (DUKE UNIVERSITY, priority 2019, published 2022)

System: KCC2 mRNA
Test: Secondary screen: KCC2 RT-qPCR in primary mouse neurons
Type: cell-based
Conditions: Natural Compounds; rank score
Procedure: The primary screen encompassed three levels of LUC measurements. The first level of screening yielded a total of 137 compounds with cut-off RLU>125% LUC activity. These 137 compounds were subject to second round of screening, which was carried out in duplicate independent assays to yield the top 103 compounds sorted for highest RLU. The 103 compounds were then subjected to a third round of screening carried out in duplicate independent assays to yield the top 40 compounds which were again ranked. The best 22 of these 40 compounds (ranked for highest RLU activity) were subjected to secondary screening: Cultured neurons were treated with the 22 compounds; RT-qPCR and Clomeleon imaging methodologies (Yeo et al., 2009, J Neurosci 29:14652-14662) were used to determine effects of compounds on KCC2 mRNA expression and [Cl—]i, respectively. Each compound was ranked based on composite scores from primary and secondary screening.
Total RNA was isolated from cultured cell samples using Directzol RNA miniprep kit (ZymoResearch). The protocol includes DNAse digestion to exclude genomic DNA from preparations. Total RNA (1 μg) was reverse transcribed using oligo primers (dT) and SuperScriptIII first-strand synthesis kit (Invitrogen). Gene expression was assessed by quantitative real-time PCR using 2×SYBR Green Master Mix (Qiagen) and a three-step cycling protocol (anneal at 60° C./elongate at 72° C., denature at 95° C.). Specificity of primers was verified by dissociation/melting curve for the amplicons when using SYBR Green as a detector. All reactions were performed in triplicates. The amount of target messenger RNA (mRNA) in the experimental group relative to that in the control was determined from the resulting fluorescence and threshold values (Ct) using the ΔΔCt method. βIII-tubulin was used as housekeeping gene.
oligodT-initiated reverse transcription of 1 μg total RNA, DNA-se treated, was subjected to RT-qPCR using primers specific for KCC2 for rat and KCC2 for human sequences, normalized for neuronal βIII-tubulin, as previously described (Yeo et al., 2009, J Neurosci 29:14652-14662). For cultured neurons, total RNA was extracted from pelleted cells, and for spinal cord tissue it was extracted from microdissected lumbar spinal cord dorsal horn.
To identify KCC2 gene expression enhancing compounds, cultured primary cortical neurons were cultured from KCC2-luciferase(LUC)-knockin (KCC2-LUCki) mice (Liedtke et al., 2013, Small 9:1066-1075; Yeo et al., 2013, Proc Natl Acad Sci USA 110:4315-4320) and used LUC metrics as readout for activity of the proximal KCC2 promoter (2.5 kB (Yeo et al., 2009, J Neurosci 29:14652-14662)), which drives LUC in this mouse transgenic line. A Z′ factor of 0.94 was obtained. This strategy will not select for long-range enhancers of KCC2 gene expression that act outside the 2.5 kB core KCC2 promoter. 1057 compounds, contained in two NCI libraries (FIG. 1), related to inhibition of growth of malignantly transformed cells were screened. Iterative screening followed by measurements of KCC2 mRNA (RT-qPCR) and intracellular chloride ([Cl—]i), using clomeleon chloride indicator protein (Kuner and Augustine, 2000, Neuron 27:447-459; Yeo et al., 2009, J Neurosci 29:14652-14662), led to decreasing numbers of confirmed and re-confirmed hits, and 4 “winner” compounds were selected (FIG. 1 and Table 3).

O=C1Cc2c([nH]c3ccc(Br)cc23)-c2ccccc2N1 [kenpaullone, 9-bromo-7,12-dihydro-indolo [3,2-d] [1]benzazepin-6(5H)-one]
RT-QPCR Score (triplicates): 2
